Test results: PubChem BioAssay (NCI)
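Five compound concentrations were applied to cells in 96-well plates for 48 hours; endpoints were derived by simple linear interpolation of the resulting dose-response curve. GI50 = concentration required for 50% inhibition of growth. TGI is the concentration that stops growth completely.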

What was measured:
Assay in all cases: DTP human tumour cell line panel, 48 h
OVCAR-3 ovarian = system: OVCAR-3 ovarian
CAKI-1 renal = system: CAKI-1 renal
HCT-15 colon = system: HCT-15 colon
KM12 colon = system: KM12 colon
SW-620 colon = system: SW-620 colon
HCC-2998 colon = system: HCC-2998 colon
DU-145 prostate = system: DU-145 prostate
HT29 colon = system: HT29 colon
T-47D breast = system: T-47D breast
CCRF-CEM leukemia = system: CCRF-CEM leukemia
SNB-19 CNS = system: SNB-19 CNS
TK-10 renal = system: TK-10 renal
MDA-MB-435 = system: MDA-MB-435
LOX IMVI melanoma = system: LOX IMVI melanoma
M14 melanoma = system: M14 melanoma
PC-3 prostate = system: PC-3 prostate
NCI-H522 lung = system: NCI-H522 lung
MDA-MB-231 breast = system: MDA-MB-231 breast
RXF 393 renal = system: RXF 393 renal
K-562 leukemia = system: K-562 leukemia
OVCAR-8 ovarian = system: OVCAR-8 ovarian
HOP-62 NSCLC = system: HOP-62 NSCLC
UACC-62 melanoma = system: UACC-62 melanoma
SK-MEL-2 melanoma = system: SK-MEL-2 melanoma
MALME-3M melanoma = system: MALME-3M melanoma
HCT-116 colon = system: HCT-116 colon
SN12C renal = system: SN12C renal
786-0 renal = system: 786-0 renal
SF-539 CNS = system: SF-539 CNS
UACC-257 melanoma = system: UACC-257 melanoma
BT-549 breast = system: BT-549 breast
HOP-92 NSCLC = system: HOP-92 NSCLC
UO-31 renal = system: UO-31 renal
NCI-H23 lung = system: NCI-H23 lung
NCI-H226 lung = system: NCI-H226 lung
SNB-75 CNS = system: SNB-75 CNS
A549 NSCLC = system: A549 NSCLC
SK-OV-3 ovarian = system: SK-OV-3 ovarian
OVCAR-5 ovarian = system: OVCAR-5 ovarian
SF-268 CNS = system: SF-268 CNS
HS 578T breast = system: HS 578T breast
U251 CNS = system: U251 CNS
COLO 205 colon = system: COLO 205 colon
MOLT-4 leukemia = system: MOLT-4 leukemia
SF-295 CNS = system: SF-295 CNS
A498 renal = system: A498 renal
MCF7 breast = system: MCF7 breast
ACHN renal = system: ACHN renal
SK-MEL-28 melanoma = system: SK-MEL-28 melanoma
RPMI-8226 leukemia = system: RPMI-8226 leukemia
OVCAR-4 ovarian = system: OVCAR-4 ovarian
NCI-H460 lung = system: NCI-H460 lung
SK-MEL-5 melanoma = system: SK-MEL-5 melanoma
EKVX NSCLC = system: EKVX NSCLC

SMILES: Cc1ccc2[nH]c(C(=O)NN3C(=O)C(C)SC34CCCCC4C)c(-c3ccccc3)c2c1 (stereo not drawn)
- GI50 (OVCAR-3 ovarian): 14.4 µM
- TGI (OVCAR-3 ovarian): 31.7 µM
- GI50 (CAKI-1 renal): 17 µM
- TGI (CAKI-1 renal): 40.7 µM
- GI50 (HCT-15 colon): 18 µM
- TGI (HCT-15 colon): 38.5 µM
- GI50 (KM12 colon): 18.5 µM
- TGI (KM12 colon): 39.9 µM
- GI50 (SW-620 colon): 19.8 µM
- TGI (SW-620 colon): 53.2 µM
- GI50 (HCC-2998 colon): 19.5 µM
- TGI (HCC-2998 colon): 35.5 µM
- GI50 (DU-145 prostate): 21.7 µM
- TGI (DU-145 prostate): 50.7 µM
- GI50 (HT29 colon): 15.5 µM
- TGI (HT29 colon): 39.3 µM
- GI50 (T-47D breast): 24.6 µM
- TGI (T-47D breast): 78.9 µM
- GI50 (CCRF-CEM leukemia): 21.7 µM
- TGI (CCRF-CEM leukemia): 73 µM
- GI50 (SNB-19 CNS): 27 µM
- TGI (SNB-19 CNS): 77.5 µM
- GI50 (TK-10 renal): 19.1 µM
- TGI (TK-10 renal): 35.6 µM
- GI50 (MDA-MB-435): 16.4 µM
- TGI (MDA-MB-435): 33.1 µM
- GI50 (LOX IMVI melanoma): 18.9 µM
- TGI (LOX IMVI melanoma): 35.4 µM
- GI50 (M14 melanoma): 20.2 µM
- TGI (M14 melanoma): 38.8 µM
- GI50 (PC-3 prostate): 15.3 µM
- TGI (PC-3 prostate): 37.6 µM
- GI50 (NCI-H522 lung): 2.4 µM
- TGI (NCI-H522 lung): 16.7 µM
- GI50 (MDA-MB-231 breast): 17.4 µM
- TGI (MDA-MB-231 breast): 34.9 µM
- GI50 (RXF 393 renal): 0.415 µM
- TGI (RXF 393 renal): 21.1 µM
- GI50 (K-562 leukemia): 18.5 µM
- TGI (K-562 leukemia): 60 µM
- GI50 (OVCAR-8 ovarian): 20.9 µM
- TGI (OVCAR-8 ovarian): 43.2 µM
- GI50 (HOP-62 NSCLC): 20.2 µM
- TGI (HOP-62 NSCLC): 37.7 µM
- GI50 (UACC-62 melanoma): 13.4 µM
- TGI (UACC-62 melanoma): 28.3 µM
- GI50 (SK-MEL-2 melanoma): 12 µM
- TGI (SK-MEL-2 melanoma): 26.5 µM
- GI50 (MALME-3M melanoma): 20.4 µM
- TGI (MALME-3M melanoma): 38.1 µM
- GI50 (HCT-116 colon): 17.4 µM
- TGI (HCT-116 colon): 35.6 µM
- GI50 (SN12C renal): 15.7 µM
- TGI (SN12C renal): 31.6 µM
- GI50 (786-0 renal): 22.2 µM
- TGI (786-0 renal): 50.9 µM
- GI50 (SF-539 CNS): 22.3 µM
- TGI (SF-539 CNS): 44.9 µM
- GI50 (UACC-257 melanoma): 20.4 µM
- TGI (UACC-257 melanoma): 37.6 µM
- GI50 (BT-549 breast): 18.8 µM
- TGI (BT-549 breast): 34.5 µM
- GI50 (HOP-92 NSCLC): 19.5 µM
- TGI (HOP-92 NSCLC): 38.5 µM
- GI50 (UO-31 renal): 16.8 µM
- TGI (UO-31 renal): 32.6 µM
- GI50 (NCI-H23 lung): 24.7 µM
- TGI (NCI-H23 lung): 53.5 µM
- GI50 (NCI-H226 lung): 17.4 µM
- TGI (NCI-H226 lung): 34.2 µM
- GI50 (SNB-75 CNS): 21.2 µM
- TGI (SNB-75 CNS): 41.7 µM
- GI50 (A549 NSCLC): 15.9 µM
- TGI (A549 NSCLC): 32.9 µM
- GI50 (SK-OV-3 ovarian): 37.9 µM
- TGI (SK-OV-3 ovarian): > 100 µM
- GI50 (OVCAR-5 ovarian): 20.3 µM
- TGI (OVCAR-5 ovarian): 40.3 µM
- GI50 (SF-268 CNS): 18.8 µM
- TGI (SF-268 CNS): 43.6 µM
- GI50 (HS 578T breast): 14.4 µM
- TGI (HS 578T breast): 43.2 µM
- GI50 (U251 CNS): 16.1 µM
- TGI (U251 CNS): 32.8 µM
- GI50 (COLO 205 colon): 18 µM
- TGI (COLO 205 colon): 38.9 µM
- GI50 (MOLT-4 leukemia): 12.2 µM
- TGI (MOLT-4 leukemia): 41 µM
- GI50 (SF-295 CNS): 17.8 µM
- TGI (SF-295 CNS): 35.5 µM
- GI50 (A498 renal): 15 µM
- TGI (A498 renal): 32 µM
- GI50 (MCF7 breast): 23.1 µM
- TGI (MCF7 breast): > 100 µM
- GI50 (ACHN renal): 17.3 µM
- TGI (ACHN renal): 36.6 µM
- GI50 (SK-MEL-28 melanoma): 19.4 µM
- TGI (SK-MEL-28 melanoma): 38.8 µM
- GI50 (RPMI-8226 leukemia): 21.4 µM
- TGI (RPMI-8226 leukemia): 64 µM
- GI50 (OVCAR-4 ovarian): 15.9 µM
- TGI (OVCAR-4 ovarian): 36.1 µM
- GI50 (NCI-H460 lung): 22 µM
- TGI (NCI-H460 lung): 58.5 µM
- GI50 (SK-MEL-5 melanoma): 16 µM
- TGI (SK-MEL-5 melanoma): 33.5 µM
- GI50 (EKVX NSCLC): 24.5 µM
- TGI (EKVX NSCLC): 61.9 µM
